Laboratory results published in US9738634B2, “Heterocyclic amide compound and herbicide” (SYNGENTA PARTICIPATIONS AG, priority 2013, dated 2017).

Experiments:
Format in all cases: in vivo
Conditions in all cases: treatment dosage 320 g/ha
[1] = tested on: wild oat; assay: Test Example 3: weedkilling efficacy through soil treatment; G: wild oat
Outline: (§1)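 Crop and weed responses were judged three weeks after a uniform surface spray of the water-diluted emulsion at the given g/ha rate. Seeds sat beneath about 1.5 cm of sterilized diluvial soil, and boxes stood in a greenhouse at 25 to 30° C.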

[2] = tested on: directly sown rice; assay: Test Example 4: foliar treatment, effect on crop; b: directly sown rice
Outline: (§2)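 Seeds are spot-sown into sterilized diluvial soil and covered with about 1.5 cm of soil. After 14 days' greenhouse growth at 25 to 30° C, plants are sprayed on stems and leaves with diluted emulsion at the stated g/ha rate, then scored at 3 weeks.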

[3] = tested on: chickweed; assay: Test Example 3: weedkilling efficacy through soil treatment; N: chickweed
Outline: as §1

[4] = tested on: wild oat; assay: Test Example 4: weedkilling efficacy by foliar treatment; G: wild oat
Outline: as §2

[5] = tested on: Italian ryegrass; assay: Test Example 3: weedkilling efficacy through soil treatment; I: Italian ryegrass
Outline: as §1

[6] = tested on: soybean; assay: Test Example 4: foliar treatment, effect on crop; d: soybean
Outline: as §2

[7] = tested on: oval-leafed pondweed; assay: Test Example 2: weedkilling efficacy, growth period weed treatment in the submerged state; C: oval-leafed pondweed
Outline: (§3)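 Weeds treated at the 1-2 leaf stage by application of diluted emulsion onto floodwater (4 cm depth, alluvial soil) at specified g/ha. Grown in greenhouse at 25 to 30° C; herbicidal effect rated three weeks after treatment.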

[8] = tested on: common wind-grass; assay: Test Example 3: weedkilling efficacy through soil treatment; J: common wind-grass
Outline: as §1

[9] = tested on: wheat; assay: Test Example 3: soil treatment, effect on crop; e: wheat
Outline: as §1

[10] = tested on: crabgrass; assay: Test Example 4: weedkilling efficacy by foliar treatment; D: crabgrass
Outline: as §2

[11] = tested on: black-grass; assay: Test Example 3: weedkilling efficacy through soil treatment; H: black-grass
Outline: as §1

[12] = tested on: crabgrass; assay: Test Example 3: weedkilling efficacy through soil treatment; D: crabgrass
Outline: as §1

[13] = tested on: soybean; assay: Test Example 3: soil treatment, effect on crop; d: soybean
Outline: as §1

[14] = tested on: birds-eye speedwell; assay: Test Example 3: weedkilling efficacy through soil treatment; p: birds-eye speedwell
Outline: as §1

[15] = tested on: barnyard grass; assay: Test Example 3: weedkilling efficacy through soil treatment; F: barnyard grass
Outline: as §1

[16] = tested on: chickweed; assay: Test Example 4: weedkilling efficacy by foliar treatment; N: chickweed
Outline: as §2

[17] = tested on: bulrush; assay: Test Example 2: weedkilling efficacy, growth period weed treatment in the submerged state; B: bulrush
Outline: as §3

[18] = tested on: common wind-grass; assay: Test Example 4: weedkilling efficacy by foliar treatment; J: common wind-grass
Outline: as §2

[19] = tested on: Indian mallow; assay: Test Example 4: weedkilling efficacy by foliar treatment; K: Indian mallow
Outline: as §2

[20] = tested on: rapeseed; assay: Test Example 3: soil treatment, effect on crop; g: rapeseed
Outline: as §1

[21] = tested on: barnyard grass; assay: Test Example 4: weedkilling efficacy by foliar treatment; F: barnyard grass
Outline: as §2

[22] = tested on: catchweed; assay: Test Example 4: weedkilling efficacy by foliar treatment; O: catchweed
Outline: as §2

[23] = tested on: beet; assay: Test Example 4: foliar treatment, effect on crop; f: beet
Outline: as §2

[24] = tested on: fig-leafed goosefoot; assay: Test Example 3: weedkilling efficacy through soil treatment; M: fig-leafed goosefoot
Outline: as §1

[25] = tested on: redroot pigweed; assay: Test Example 3: weedkilling efficacy through soil treatment; L: redroot pigweed
Outline: as §1

[26] = tested on: Italian ryegrass; assay: Test Example 4: weedkilling efficacy by foliar treatment; I: Italian ryegrass
Outline: as §2

[27] = tested on: rapeseed; assay: Test Example 4: foliar treatment, effect on crop; g: rapeseed
Outline: as §2

[28] = tested on: corn; assay: Test Example 4: foliar treatment, effect on crop; c: corn
Outline: as §2

[29] = tested on: directly sown rice; assay: Test Example 3: soil treatment, effect on crop; b: directly sown rice
Outline: as §1

[30] = tested on: beet; assay: Test Example 3: soil treatment, effect on crop; f: beet
Outline: as §1

[31] = tested on: barnyard grass; assay: Test Example 2: weedkilling efficacy, growth period weed treatment in the submerged state; A: barnyard grass
Outline: as §3

[32] = tested on: corn; assay: Test Example 3: soil treatment, effect on crop; c: corn
Outline: as §1

[33] = tested on: green foxtail; assay: Test Example 4: weedkilling efficacy by foliar treatment; E: green foxtail
Outline: as §2

[34] = tested on: fig-leafed goosefoot; assay: Test Example 4: weedkilling efficacy by foliar treatment; M: fig-leafed goosefoot
Outline: as §2

[35] = tested on: transplanted rice; assay: Test Example 1: preemergent weed treatment in the submerged state, effect on crop; a: transplanted rice
Outline: (§4)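 Pots of alluvial soil were flooded to a 4 cm depth. Mixed weed seeds were sown and 2.5 leaf-stage rice seedlings transplanted. On sowing day, water-diluted emulsion was applied to the water surface (dose in g/ha). After 3 weeks at 25–30 °C, effects were rated.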

[36] = tested on: wheat; assay: Test Example 4: foliar treatment, effect on crop; e: wheat
Outline: as §2

[37] = tested on: Indian mallow; assay: Test Example 3: weedkilling efficacy through soil treatment; K: Indian mallow
Outline: as §1

[38] = tested on: barnyard grass; assay: Test Example 1: weedkilling efficacy, preemergent weed treatment in the submerged state; A: barnyard grass
Outline: as §4

[39] = tested on: black-grass; assay: Test Example 4: weedkilling efficacy by foliar treatment; H: black-grass
Outline: as §2

[40] = tested on: bulrush; assay: Test Example 1: weedkilling efficacy, preemergent weed treatment in the submerged state; B: bulrush
Outline: as §4

[41] = tested on: green foxtail; assay: Test Example 3: weedkilling efficacy through soil treatment; E: green foxtail
Outline: as §1

[42] = tested on: redroot pigweed; assay: Test Example 4: weedkilling efficacy by foliar treatment; L: redroot pigweed
Outline: as §2

[43] = tested on: oval-leafed pondweed; assay: Test Example 1: weedkilling efficacy, preemergent weed treatment in the submerged state; C: oval-leafed pondweed
Outline: as §4

[44] = tested on: birds-eye speedwell; assay: Test Example 4: weedkilling efficacy by foliar treatment; p: birds-eye speedwell
Outline: as §2

COc1cc(F)nc(NC(=O)C(C)(C)N2COC(C)=C(c3ccccc3)C2=O)c1 [B-2-41]
G (wild oat) weedkilling efficacy grade [1]: 3 (weed kill ratio 40% or more, less than 70%)
b (directly sown rice) effect on crop grade [2]: 4 (weed kill ratio 70% or more, less than 90%)
N (chickweed) weedkilling efficacy grade [3]: 4 (weed kill ratio 70% or more, less than 90%)
G (wild oat) weedkilling efficacy grade [4]: 3 (weed kill ratio 40% or more, less than 70%)
I (Italian ryegrass) weedkilling efficacy grade [5]: 5 (weed kill ratio 90% or more, (practically complete withering))
d (soybean) effect on crop grade [6]: 4 (weed kill ratio 70% or more, less than 90%)
C (oval-leafed pondweed) weedkilling efficacy grade [7]: 5 (weed kill ratio 90% or more, (practically complete withering))
J (common wind-grass) weedkilling efficacy grade [8]: 5 (weed kill ratio 90% or more, (practically complete withering))
e (wheat) effect on crop grade [9]: 0 (weed kill ratio 5% or less (practically no effect))
D (crabgrass) weedkilling efficacy grade [10]: 5 (weed kill ratio 90% or more, (practically complete withering))
H (black-grass) weedkilling efficacy grade [11]: 5 (weed kill ratio 90% or more, (practically complete withering))
D (crabgrass) weedkilling efficacy grade [12]: 5 (weed kill ratio 90% or more, (practically complete withering))
d (soybean) effect on crop grade [13]: 0 (weed kill ratio 5% or less (practically no effect))
P (birds-eye speedwell) weedkilling efficacy grade [14]: 5 (weed kill ratio 90% or more, (practically complete withering))
F (barnyard grass) weedkilling efficacy grade [15]: 5 (weed kill ratio 90% or more, (practically complete withering))
N (chickweed) weedkilling efficacy grade [16]: 4 (weed kill ratio 70% or more, less than 90%)
B (bulrush) weedkilling efficacy grade [17]: 5 (weed kill ratio 90% or more, (practically complete withering))
J (common wind-grass) weedkilling efficacy grade [18]: 5 (weed kill ratio 90% or more, (practically complete withering))
K (Indian mallow) weedkilling efficacy grade [19]: 5 (weed kill ratio 90% or more, (practically complete withering))
g (rapeseed) effect on crop grade [20]: 4 (weed kill ratio 70% or more, less than 90%)
F (barnyard grass) weedkilling efficacy grade [21]: 5 (weed kill ratio 90% or more, (practically complete withering))
O (catchweed) weedkilling efficacy grade [22]: 5 (weed kill ratio 90% or more, (practically complete withering))
f (beet) effect on crop grade [23]: 4 (weed kill ratio 70% or more, less than 90%)
M (fig-leafed goosefoot) weedkilling efficacy grade [24]: 4 (weed kill ratio 70% or more, less than 90%)
L (redroot pigweed) weedkilling efficacy grade [25]: 3 (weed kill ratio 40% or more, less than 70%)
I (Italian ryegrass) weedkilling efficacy grade [26]: 5 (weed kill ratio 90% or more, (practically complete withering))
g (rapeseed) effect on crop grade [27]: 5 (weed kill ratio 90% or more, (practically complete withering))
c (corn) effect on crop grade [28]: 4 (weed kill ratio 70% or more, less than 90%)
b (directly sown rice) effect on crop grade [29]: 4 (weed kill ratio 70% or more, less than 90%)
f (beet) effect on crop grade [30]: 3 (weed kill ratio 40% or more, less than 70%)
A (barnyard grass) weedkilling efficacy grade [31]: 5 (weed kill ratio 90% or more, (practically complete withering))
c (corn) effect on crop grade [32]: 0 (weed kill ratio 5% or less (practically no effect))
E (green foxtail) weedkilling efficacy grade [33]: 5 (weed kill ratio 90% or more, (practically complete withering))
M (fig-leafed goosefoot) weedkilling efficacy grade [34]: 3 (weed kill ratio 40% or more, less than 70%)
a (transplanted rice) effect on crop grade [35]: 3 (weed kill ratio 40% or more, less than 70%)
e (wheat) effect on crop grade [36]: 0 (weed kill ratio 5% or less (practically no effect))
K (Indian mallow) weedkilling efficacy grade [37]: 2 (weed kill ratio 20% or more, less than 40%)
A (barnyard grass) weedkilling efficacy grade [38]: 5 (weed kill ratio 90% or more, (practically complete withering))
H (black-grass) weedkilling efficacy grade [39]: 5 (weed kill ratio 90% or more, (practically complete withering))
B (bulrush) weedkilling efficacy grade [40]: 5 (weed kill ratio 90% or more, (practically complete withering))
E (green foxtail) weedkilling efficacy grade [41]: 5 (weed kill ratio 90% or more, (practically complete withering))
L (redroot pigweed) weedkilling efficacy grade [42]: 4 (weed kill ratio 70% or more, less than 90%)
C (oval-leafed pondweed) weedkilling efficacy grade [43]: 5 (weed kill ratio 90% or more, (practically complete withering))
P (birds-eye speedwell) weedkilling efficacy grade [44]: 5 (weed kill ratio 90% or more, (practically complete withering))
